In PMC10122656, “Siglec-6 mediates the uptake of extracellular vesicles through a noncanonical glycolipid binding pocket” (Nature Communications, 2023):
Values joined by “and” are separate entries in the source; they are usually repeats but may differ in a detail not shown here. Identical values can stand only once.

Columns and labels:
[1] = molecular target: T1, CHO cells expressing Siglec-6 mutants (C46A, C172A, R to A mutants, F93A, L95A, G175M) (Homo sapiens, UniProt O43699, L95A); experiment: Cell assay (liposome/EV binding, flow cytometry); assay type: cell-based; settings: sheet Figure S28b, 3% GM3-DAG liposomes, L95A;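 note: AF647 fluorescence intensity from 0.1 mol% AF647–PEG45–DSPE in liposomes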
T1 construct: These new CHO cell lines are the full-length versions of the Siglecs; expressed in transfected cells
T1 sequence (O43699 27-453 L95A): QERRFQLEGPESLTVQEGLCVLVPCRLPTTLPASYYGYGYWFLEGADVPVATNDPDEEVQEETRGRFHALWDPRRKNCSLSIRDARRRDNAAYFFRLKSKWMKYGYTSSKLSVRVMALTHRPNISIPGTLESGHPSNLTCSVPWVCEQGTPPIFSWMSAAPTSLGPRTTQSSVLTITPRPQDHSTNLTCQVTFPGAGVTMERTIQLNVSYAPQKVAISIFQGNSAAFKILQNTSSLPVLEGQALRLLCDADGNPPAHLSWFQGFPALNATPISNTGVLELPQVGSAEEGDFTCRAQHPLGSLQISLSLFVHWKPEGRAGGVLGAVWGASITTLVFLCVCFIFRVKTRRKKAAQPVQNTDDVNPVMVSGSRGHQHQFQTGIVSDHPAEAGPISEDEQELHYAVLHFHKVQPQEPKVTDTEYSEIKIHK
Description: Mutations were introduced into each Siglec via gene overlap extension PCR mutagenesis (primers were ordered through IDT). Mutagenesis primers can be found in Supplementary Tables 2 and 3 for the critical arginine mutants of the entire Siglec family and the additional Siglec-6 mutants respectively.
(§1) 200,000 cells/well were plated into a 96-well U-bottom microplate and centrifuged at 300 × g for 5 min. The cells were then resuspended in 50 µL of 50 µM liposome/50 µg/mL (protein concentration) of EV solution in DMEM F12 5% FBS and incubated at 37 °C for 30 min. Excess liposomes were then removed via centrifuged at 300 × g for 5 min followed by washing the cells with FACS solution. The cells were then resuspended in (1:250 V/V) anti-Siglec-flow buffer (1% V/V FBS, 500 µM, EDTA Hank’s Balanced Salt Solution pH 7.4), solution and left to rest on ice for 30 min. The cells were then centrifuged again at 300 × g for 5 min and the cells were resuspended in FACS buffer solution and were then ready for analysis by flow cytometry. Information regarding antibody clone, catalog number supplier, label isotype, and dilution can be found in Supplementary Table 6. The Siglec-positive cells were gated on for liposome-binding analysis (Supplementary Fig. 1b).
(§2) Flow cytometry measurements were collected on a 5-laser Fortessa X-20 (BD Bioscience). All the resulting data were analyzed using FlowJo (10.5.3) software (BD Biosciences).

R92K Siglec-6-Fc = molecular target: T2, R92K Siglec-6-Fc (Homo sapiens, UniProt O43699, R92K); experiment: Bead assay (Siglec-Fc on streptavidin microbeads, flow cytometry); assay type: binding
T2 construct: the Siglecs as Fc chimeras; made in house; host or cells: WT CHO cells
T2 sequence (O43699 27-347 R92K limits assumed): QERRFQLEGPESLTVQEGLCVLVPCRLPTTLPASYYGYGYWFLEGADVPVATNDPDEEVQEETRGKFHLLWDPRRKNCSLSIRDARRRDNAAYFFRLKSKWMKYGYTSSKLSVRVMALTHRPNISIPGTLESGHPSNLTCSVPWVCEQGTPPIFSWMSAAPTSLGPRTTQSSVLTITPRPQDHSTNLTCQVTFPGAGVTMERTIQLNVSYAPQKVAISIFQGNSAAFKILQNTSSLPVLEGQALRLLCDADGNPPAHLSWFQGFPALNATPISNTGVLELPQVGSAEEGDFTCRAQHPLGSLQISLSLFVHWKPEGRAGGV
Description: (§3) Siglec-Fc constructs designed by Rodrigues et al.[30] were used in this work. Siglec-Fc constructs were expressed using WT CHO cells in cell culture media as described above with 1% HEPES. Cells incubated as described above for one-week post confluency. The supernatant was harvested and stored at 4 °C.
(§4) The purification was heavily inspired by Rodrigues et al.[30]. The purification of the Siglec-Fcs from supernatant began with Ni^2+ affinity chromatography using an AKTA FPLC equipped with a HisTrap Excel column (GE). The column was equilibrated with fifteen column volumes (CVs) of equilibrium buffer (500 mM NaCl, 20 mM NaPO4H2, pH 7.4). The Siglec-Fc containing supernatant was then loaded in its entirety onto the column. The column was then washed with fifteen CVs of wash buffer (500 mM NaCl, 30 mM imidazole, 20 mM NaPO4H2, pH 7.4). The Siglec-Fc was then eluted in 20 in 1 mL fractions with twenty CVs of elution buffer (500 mM NaCl, 500 mM imidazole, 20 mM NaPO4H2, pH 7.4). Fractions containing Siglec-Fc were compiled and then prepared for the next stage of purification by diluting the fractions 1:4 with buffer W (100 mM Tris–HCl, 150 mM NaCl, 1 mM EDTA, pH 8.0). A Strep-Tactin column (IBA life sciences) was washed with fifteen CVs of buffer W. The Siglec-Fc-buffer W solution was then loaded in its entirety onto the column. The bound Siglec-Fc was then washed with fifteen CVs of buffer W. Siglec-Fc was eluted from the column with 15 column volumes of buffer E (100 mM Tris–HCl, 150 mM NaCl, 1 mM EDTA, 10 mM d-Desthiobiotin, pH 8.0). Fractions containing Siglec-Fc were pooled and dialyzed against PBS to remove any d-Desthiobiotin. After dialysis, Siglec-Fcs were concentrated using an ultra-centrifugal device (30 kDa MWCO) and aliquoted into 5 µg aliquots, and frozen. The Siglec-Fcs were then lyophilized overnight, and the lyophilized Siglec-Fcs were stored at −20 °C.
(§5) Pierce^TM Streptavidin Magnetic Beads (Thermo Scientific) were blocked with 2% (m/V) BSA on ice for 1 h. Siglec-Fc in PBS was added then added to the bead solution such that the final concentration was 25 µg/mL. The Siglec-Fc was complexed to the beads for 1 h on ice. Excess Siglec-Fc was removed by washing the beads with 2% BSA solution and 50 µM liposome or 50 µg/mL (protein concentration) EV solution was then added to the beads. The beads were incubated with the liposomes/EVs for 30 min at 37 °C. The beads were then washed with 2% BSA solution and flow cytometry was used to measure the binding between the beads and the liposomes.

WT Siglec-6-Fc = molecular target: T3, WT Siglec-6-Fc (Homo sapiens, UniProt O43699); experiment: as above; assay type: binding
T3 construct: the Siglecs as Fc chimeras; made in house; host or cells: WT CHO cells
T3 sequence (O43699 27-347 limits assumed): as the sequence (O43699 27-347 R92K limits assumed) above, with K66R counted along it
Description: as §3, §4, §5

memory B-cells = experiment: Liposome binding to peripheral blood memory B-cells by flow cytometry; assay type: cell-based, human
Description: as §1, §2

[2] = Ganglioside content quantification in liposomes by ESI-MS; assay type: physicochemical; settings: peer review file; Supplementary Table 1
Description: The average ganglioside content in a given liposome sample was measured by electrospray ionization mass spectrometry (ESI-MS) using an internal standard (IS)[70]. Briefly, the liposome sample was first disassembled in a methanol solution of 0.15% formic acid, and a known amount of IS was added. The solution was then analyzed by ESI-MS. The total ion abundance (Ab) ratio of the ganglioside (GSL) to the IS measured by ESI-MS is related to the corresponding solution concentration ratio by Eq. (1):1 R=AbGSL/AbIS=GSL/IS and thus the ganglioside concentration can be obtained from linear regression. The corrected ganglioside percentage (GSL%corr) and the ganglioside incorporation in the liposome can be found from Eqs. (2) and (3), respectively, where [GSL]nominal is the nominal concentration of the ganglioside used for liposome preparation:2 GSL%corr=[GSL]/[TotalLipid] 3 Incorporation=[GSL]/GSLnominal
The corresponding deuterium labeled gangliosides, N-ω-CD3-octadecanoyl monosialoganglioside GM2 (GM2-d3), and N-ω-CD3-octadecanoyl monosialoganglioside GM3 (GM3-d3), purchased form Matreya LLC (State College, PA), were used as IS for GM2 and GM3 content quantification, respectively. All these measurements were carried out in negative ion mode using a Q Exactive Hybrid Quadrupole-Orbitrap mass spectrometer coupled with the Nanospray Flex Ion Source (Thermo Fisher Scientific, Bremen, Germany). […]

Compound: CCCCCCCCCCCCCCCCOCC(COCCCCCCCCCCCCCCCC)OCc1cn(CCO[C@@H]2O[C@H](CO)[C@@H](O[C@@H]3O[C@H](CO)[C@H](O)[C@H](O[C@]4(C(=O)O)C[C@H](O)[C@@H](NC(C)=O)[C@H]([C@H](O)[C@H](O)CO)O4)[C@H]3O)[C@H](O)[C@H]2O)nn1 [GM3-DAG]
- liposome binding, fluorescence signal (replicates) [1]: 497 and 522 and 557 and 567
- liposome binding, fluorescence signal (replicates) (R92K Siglec-6-Fc; sheet Figure S27, R92K, assay format not given): 264 and 225 and 240 and 223
- liposome binding, fluorescence signal (replicates) (WT Siglec-6-Fc; sheet Figure S27, WT, assay format not given): 13816 and 10279 and 11696 and 11729
- liposome binding, fluorescence signal (replicates) (memory B-cells; sheet Figure S29, 5% GM3-DAG liposomes, cells not given): 361 and 385 and 363 and 344

Compound: CCCCCCCCCCCCCCCCOCC(COCCCCCCCCCCCCCCCC)OCc1cn(CCO[C@@H]2O[C@H](CO)[C@@H](O[C@@H]3O[C@H](CO)[C@H](O)[C@H](O[C@]4(C(=O)O)C[C@H](O)[C@@H](NC(C)=O)[C@H]([C@H](O)[C@H](O)CO)O4)[C@H]3O)[C@H](O)[C@H]2O)nn1 [nGL 5]
- binding of 5 nGLLs to R92K Siglec-6 Fc compared to WT Siglec-6 (R92K Siglec-6-Fc; bead assay): less than 5%
- blocking of EV binding to Siglec-6 with 5 mol% 5 nGLLs (WT Siglec-6-Fc; bead assay): competed away binding of EVs
- 5 nGLL binding to memory B-cells after pre-treatment with anti-Siglec-6 antibody (memory B-cells): Blocking of 5 nGLLs to human memory B-cells was achieved
- 5 nGLL binding to memory B-cells compared to naïve B-cells (memory B-cells; four healthy donors): significant binding

Compound: GM2
- incorporation of ganglioside into liposomes [2]: 98%

Compound: GM3
- incorporation of ganglioside into liposomes [2]: 96%
